Reference: ChEMBL document CHEMBL1201862, “PubChem BioAssay data set” (2004)
Activity calls are given as the source filed them.

Columns and labels:
SN12K1 = assay: cells; assay type: functional; conditions: Homo sapiens
P388 = assay: cells; assay type: functional; conditions: Mus musculus
P388/ADR = assay: cells; assay type: functional; conditions: Mus musculus
[1] = Luminescence-based cell-based high throughput dose response assay to identify activators of the DAF-12 from the parasite S. stercoralis (ssDAF-12).; assay type: functional
[2] = target: T1, Oxysterols receptor LXR-beta (Homo sapiens, UniProt P55055); assay: LXR agonists, Gal4 luciferase reporter, dose response, counter-screen for ssDAF-12 agonist project, cell-based, luminescence, HEK293, S. stercoralis campaign (AID 720737); assay type: functional; conditions: read-out: IC50 (the source's name)
T1 sequence (P55055 whole entry): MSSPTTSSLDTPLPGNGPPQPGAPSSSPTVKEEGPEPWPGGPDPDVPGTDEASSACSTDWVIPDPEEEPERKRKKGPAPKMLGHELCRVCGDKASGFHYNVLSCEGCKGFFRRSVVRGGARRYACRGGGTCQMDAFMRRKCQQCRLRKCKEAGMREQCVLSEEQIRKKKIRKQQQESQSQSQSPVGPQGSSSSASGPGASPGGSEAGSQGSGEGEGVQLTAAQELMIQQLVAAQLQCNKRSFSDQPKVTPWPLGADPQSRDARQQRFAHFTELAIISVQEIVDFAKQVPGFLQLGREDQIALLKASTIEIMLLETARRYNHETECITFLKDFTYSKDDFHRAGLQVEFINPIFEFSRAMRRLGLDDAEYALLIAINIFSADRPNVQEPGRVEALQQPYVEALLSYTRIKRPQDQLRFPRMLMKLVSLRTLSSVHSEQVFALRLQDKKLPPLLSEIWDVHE

[3] = target: T2, Sentrin-specific protease 7 (Homo sapiens, UniProt Q9BQF6); assay type: functional;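 further: Luminescence-based dose-response confirmation of ultra-high-throughput screening hits, measuring inhibition of SENP7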
T2 sequence (Q9BQF6 whole entry): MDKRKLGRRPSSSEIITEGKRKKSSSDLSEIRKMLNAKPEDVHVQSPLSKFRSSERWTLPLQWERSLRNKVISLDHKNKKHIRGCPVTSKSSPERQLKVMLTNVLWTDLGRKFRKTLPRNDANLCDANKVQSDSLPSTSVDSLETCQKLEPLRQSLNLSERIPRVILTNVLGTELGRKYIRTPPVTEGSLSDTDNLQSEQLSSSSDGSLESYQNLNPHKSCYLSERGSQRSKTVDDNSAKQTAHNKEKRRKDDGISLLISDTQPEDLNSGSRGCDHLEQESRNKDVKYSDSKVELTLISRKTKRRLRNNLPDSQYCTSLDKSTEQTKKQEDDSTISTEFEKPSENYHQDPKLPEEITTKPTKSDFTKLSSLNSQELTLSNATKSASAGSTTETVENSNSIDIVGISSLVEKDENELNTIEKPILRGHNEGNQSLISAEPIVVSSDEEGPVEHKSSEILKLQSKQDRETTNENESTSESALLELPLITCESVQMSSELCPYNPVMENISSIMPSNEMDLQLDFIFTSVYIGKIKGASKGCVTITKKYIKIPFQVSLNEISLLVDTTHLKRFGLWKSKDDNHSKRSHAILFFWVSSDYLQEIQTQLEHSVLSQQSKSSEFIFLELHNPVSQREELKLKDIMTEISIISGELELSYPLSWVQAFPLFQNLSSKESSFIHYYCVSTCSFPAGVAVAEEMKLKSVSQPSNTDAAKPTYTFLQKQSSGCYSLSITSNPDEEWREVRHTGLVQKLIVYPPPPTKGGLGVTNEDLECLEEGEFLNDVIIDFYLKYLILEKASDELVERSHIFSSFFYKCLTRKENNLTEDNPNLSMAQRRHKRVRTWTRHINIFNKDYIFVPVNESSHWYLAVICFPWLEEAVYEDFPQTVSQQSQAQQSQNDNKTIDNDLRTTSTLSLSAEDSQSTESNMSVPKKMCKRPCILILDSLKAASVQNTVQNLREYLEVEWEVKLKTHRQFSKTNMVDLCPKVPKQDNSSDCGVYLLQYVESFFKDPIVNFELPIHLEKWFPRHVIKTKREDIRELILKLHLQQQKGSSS

[4] = target: T3, Sentrin-specific protease 8 (Homo sapiens, UniProt Q96LD8); assay type: functional;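 further: luminescence read-out of SENP8 inhibition, dose-response confirmation following an ultra-high-throughput screen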
T3 sequence (Q96LD8 whole entry): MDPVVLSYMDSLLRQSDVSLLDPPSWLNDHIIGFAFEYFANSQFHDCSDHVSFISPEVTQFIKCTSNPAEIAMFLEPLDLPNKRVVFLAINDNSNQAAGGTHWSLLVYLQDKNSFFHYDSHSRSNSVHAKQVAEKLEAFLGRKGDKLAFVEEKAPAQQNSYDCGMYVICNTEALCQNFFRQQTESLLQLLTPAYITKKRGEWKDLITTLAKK

[5] = target: T4, Sentrin-specific protease 6 (Homo sapiens, UniProt Q9GZR1); assay type: functional;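 further: Luminescence-based dose-response confirmatory assay of SENP6 inhibition, following up an ultra-high-throughput screen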
T4 sequence (Q9GZR1 whole entry): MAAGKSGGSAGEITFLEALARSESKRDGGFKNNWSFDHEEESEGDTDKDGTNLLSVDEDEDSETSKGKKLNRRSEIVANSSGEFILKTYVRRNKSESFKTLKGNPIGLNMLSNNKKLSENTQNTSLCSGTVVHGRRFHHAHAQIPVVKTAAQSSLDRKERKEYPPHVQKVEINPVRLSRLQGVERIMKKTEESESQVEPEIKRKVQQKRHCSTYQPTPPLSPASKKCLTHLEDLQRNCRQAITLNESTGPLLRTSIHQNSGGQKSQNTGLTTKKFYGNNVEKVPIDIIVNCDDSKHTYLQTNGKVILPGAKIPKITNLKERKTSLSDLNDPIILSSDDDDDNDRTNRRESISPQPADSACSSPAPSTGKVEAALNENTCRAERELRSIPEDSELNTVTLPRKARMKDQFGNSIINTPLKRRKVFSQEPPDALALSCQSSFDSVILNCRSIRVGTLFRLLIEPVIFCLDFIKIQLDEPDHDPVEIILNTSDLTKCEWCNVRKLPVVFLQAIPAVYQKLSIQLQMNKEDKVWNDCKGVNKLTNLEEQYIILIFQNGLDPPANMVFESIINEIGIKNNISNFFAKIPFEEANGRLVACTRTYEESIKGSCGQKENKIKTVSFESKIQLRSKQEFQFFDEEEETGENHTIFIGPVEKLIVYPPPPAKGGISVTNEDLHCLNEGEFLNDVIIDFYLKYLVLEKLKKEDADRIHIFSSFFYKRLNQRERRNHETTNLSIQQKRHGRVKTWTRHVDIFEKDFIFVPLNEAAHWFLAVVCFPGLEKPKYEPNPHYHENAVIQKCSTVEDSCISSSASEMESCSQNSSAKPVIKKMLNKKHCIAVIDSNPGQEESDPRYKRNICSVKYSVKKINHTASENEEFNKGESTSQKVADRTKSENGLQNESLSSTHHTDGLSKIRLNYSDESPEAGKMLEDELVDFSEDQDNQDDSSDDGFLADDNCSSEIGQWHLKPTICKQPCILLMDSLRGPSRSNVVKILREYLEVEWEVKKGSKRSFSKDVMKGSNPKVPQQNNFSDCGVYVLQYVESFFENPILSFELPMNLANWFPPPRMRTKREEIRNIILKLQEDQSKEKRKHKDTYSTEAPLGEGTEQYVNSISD

Caspase-3 = target: T5, Caspase-3 (Homo sapiens, UniProt P42574); assay type: functional;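 further: Dose-response selectivity test against caspase-3 for candidate inhibitors of sentrin-specific proteases (SENPs)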
T5 sequence (P42574 whole entry): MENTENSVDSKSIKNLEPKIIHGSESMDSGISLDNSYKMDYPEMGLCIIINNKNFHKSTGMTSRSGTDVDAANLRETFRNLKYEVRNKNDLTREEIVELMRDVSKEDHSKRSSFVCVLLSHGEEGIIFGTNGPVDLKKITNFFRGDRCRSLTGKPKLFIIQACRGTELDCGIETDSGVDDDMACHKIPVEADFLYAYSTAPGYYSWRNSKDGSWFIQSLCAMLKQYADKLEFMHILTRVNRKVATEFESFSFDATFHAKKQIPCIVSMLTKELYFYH

[6] = microbe, parasite or virus in culture; assay type: functional; conditions: Mycobacterium tuberculosis
[7] = toxicity toward HepG2 liver cells – cell-based, plate reader, cherry-pick, antagonist series, cytotoxicity control, dose response (AID 743416); assay type: functional
[8] = blockers of bursicon-stimulated LGR2 cAMP reporter – cell-based, HEK293, CRE-luciferase reporter, cherry pick, set 2, dose response (AID 743343); assay type: functional;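 further: transfected cells were stimulated with diluted bursicon conditioned medium after compound addition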
[9] = target: T6, Ubiquitin-conjugating enzyme E2 N (Homo sapiens, UniProt P61088); assay type: functional;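 further: Dose-response confirmation in a TR-FRET assay detecting UBC13-driven polyubiquitin chain formation, inhibition measured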
T6 sequence (P61088 whole entry): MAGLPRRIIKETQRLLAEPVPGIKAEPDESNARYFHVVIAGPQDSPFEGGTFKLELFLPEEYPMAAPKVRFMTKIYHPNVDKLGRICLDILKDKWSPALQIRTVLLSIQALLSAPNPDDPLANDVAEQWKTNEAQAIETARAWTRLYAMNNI

[10] = viability loss in HEK293 cells – cell-based, plate reader, cherry-picked samples, cytotoxicity control, dose response (AID 743446); assay type: functional
[11] = blockade of melanocortin 4 receptor signaling – cell-based, plate reader, cherry pick, counter-screen for LGR2 antagonist project, dose response (AID 743444); assay type: functional;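 further: transfected HEK 293 cells stimulated with alpha-MSH peptide; potency of inhibitors of the alpha-MSH evoked signal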
[12] = A549 cell cytotoxicity, dose response, cytotoxicity control, plate reader, cherry-pick, antagonist series (AID 743412); assay type: functional, cell-based

| SMILES | GI50 (SN12K1) | GI50 (P388) | GI50 (P388/ADR) | IC50 [1] | EC50 [2] | also measured |
| --- | --- | --- | --- | --- | --- | --- |
| Cc1cn([C@H]2C[C@H](N=[N+]=[N-])[C@@H](CO)O2)c(=O)[nH]c1=O [ZIDOVUDINE] | > 100 µM (inactive) | 99.3 µM (inactive) | > 100 µM (inactive) | – | – | – |
| N#Cc1cc2ccccc2nc1SCc1ccccn1 | – | – | – | > 67.5 µM (inactive) | > 67.5 µM (inactive) | – |
| O=C(Nc1ccc2c(c1)CCC2)c1ccc(Br)s1 | – | – | – | – | – | IC50 [3]: 3.4 µM (active); IC50 [4]: 4.31 µM (active); IC50 [5]: 5.03 µM (active); IC50 (Caspase-3): 17.5 µM (active) |
| C=C1[C@@H](C)[C@H]2[C@H](Cc3ccccc3)NC(=O)[C@]23OC(=O)/C=C/[C@H](O)CCC[C@@H](C)C/C=C/[C@H]3[C@@H]1O | 0.31 µM (active) | 12.4 µM (inactive) | 15.3 µM (inactive) | – | – | – |
| CNC(=O)OCc1nc([S+](C)[O-])n(C)c1COC(=O)NC (centres undefined) | > 100 µM (inactive) | > 100 µM (inactive) | > 100 µM (inactive) | – | – | – |
| COC(=O)c1ccccc1NC(=O)c1ccnn1C | – | – | – | > 67.5 µM (inactive) | > 67.5 µM (inactive) | – |
| C=C1C(=O)OC2/C=C(\C)CC(O)/C=C(/CO)CC(OC(=O)/C(C)=C/C)C12 (centres undefined) | 24.8 µM (inactive) | 11.1 µM (inactive) | 16.7 µM (inactive) | – | – | – |
| O=C(CCNC(=O)c1ccccc1)N=Nc1c(O)[nH]c2ccccc12 | – | – | – | > 67.5 µM (inactive) | > 67.5 µM (inactive) | – |
| Ic1ccccc1CN[C@@H]1C2CCN(CC2)[C@@H]1C(c1ccccc1)c1ccccc1 | – | – | – | – | – | CC50 [6]: 12.6 µM (active); AC50 [7]: 8.05 µM (active); AC50 [8]: 18.1 µM (active); IC50 [9]: > 20 µM (inactive); AC50 [10]: 13.9 µM (active); AC50 [11]: 21.6 µM (active); AC50 [12]: 7.99 µM (active) |
